# Assay results as given in paper PMC4991273 (2016).
# Key:
# [1] = test system: ss17 (DNA, single strand) CCAGTTCGTAGTAACCC; assay: fluorescence emission titration; conditions: K+ 100 mM; 10 mM lithium cacodylate, pH 7.3; 2 μM compound; per motif of 5 bases; per site
# [2] = test system: ds17 (DNA, duplex) CCAGTTCGTAGTAACCC/GGGTTACTACGAACTGG; assay: fluorescence emission titration; conditions: K+ 100 mM; 10 mM lithium cacodylate, pH 7.3; 2 μM compound; per motif (2 compounds per 5 base pairs); per site
# [3] = test system: myc2345 (DNA, G4) TGAGGGTGGGGAGGGTGGGGAA; assay: fluorescence emission titration; conditions: K+ 100 mM; 10 mM lithium cacodylate, pH 7.3; 2 μM compound; per motif (2 compounds per G-quadruplex); per site
# [4] = test system: PDGF-A (DNA, G4) GGAGGCGGGGGGGGGGGGGCGGGGGCGGGGGCGGGGGAGGGGCGCGGC; assay: fluorescence emission titration; conditions: K+ 100 mM (DNA annealed in 25 mM KCl); 10 mM lithium cacodylate, pH 7.3; 2 μM compound
# [5] = test system: TBA (DNA, G4) GGTTGGTGTGGTTGG; assay: fluorescence emission titration; conditions: K+ 100 mM; 10 mM lithium cacodylate, pH 7.3; 2 μM compound; per site
# [6] = test system: TBA (DNA, G4) GGTTGGTGTGGTTGG; assay: fluorescence enhancement and lifetime (TCSPC); conditions: K+ 100 mM; 10 mM lithium cacodylate, pH 7.3; 2 μM compound
# [7] = test system: PDGF-A (DNA, G4) GGAGGCGGGGGGGGGGGGGCGGGGGCGGGGGCGGGGGAGGGGCGCGGC; assay: fluorescence enhancement and lifetime (TCSPC); conditions: K+ 100 mM (DNA annealed in 25 mM KCl); 10 mM lithium cacodylate, pH 7.3; 2 μM compound
# [8] = test system: myc2345 (DNA, G4) TGAGGGTGGGGAGGGTGGGGAA; assay: fluorescence enhancement and lifetime (TCSPC); conditions: K+ 100 mM; 10 mM lithium cacodylate, pH 7.3; 2 μM compound
# [9] = test system: ss17 (DNA, single strand) CCAGTTCGTAGTAACCC; assay: fluorescence enhancement and lifetime (TCSPC); conditions: K+ 100 mM; 10 mM lithium cacodylate, pH 7.3; 2 μM compound
# [10] = test system: ds17 (DNA, duplex) CCAGTTCGTAGTAACCC/GGGTTACTACGAACTGG; assay: fluorescence enhancement and lifetime (TCSPC); conditions: K+ 100 mM; 10 mM lithium cacodylate, pH 7.3; 2 μM compound
K a [1],K a [2],K a [3],K a [4],K a [5],binding [6],binding [7],binding [8],binding [9],binding [10],Structure (SMILES)
1.0 ± 0.2 × 10^6 M^-1,2.1 ± 0.3 × 10^6 M^-1,8.4 ± 2.9 × 10^5 M^-1,1.6 ± 1.5 × 10^6 M^-1,1.2 ± 0.4 × 10^6 M^-1,,,,,,CCCn1c2cccc3oc4cccc5c4c(c4c1cccc4[n+]5CCC)-c32
,,,,,yes,yes,yes,yes,yes,c1cc2oc3cccc4c3c3c5c(cccc5[n+]4CCN4CCOCC4)n(CCN4CCOCC4)c(c1)c2-3
